Test results: US6235753A, “Inhibitors of the production of S-CD23 and the secretion of TNF” (priority 1996, dated 2001)
Like-named read-outs stand apart in the source and are kept apart here.

Legend:
TNFα = experiment: Inhibition of release of TNFα from human monocytes stimulated by LPS (TNF processing inhibition); type: cell-based; settings: Monocyte, read-out: TNF processing inhibition
Protocol: Procedure 3: The ability of test compounds to inhibit TNF release was investigated using the following procedure. Assay for inhibition of release of TNFα from human monocytes stimulated by lipopolysaccharide (LPS) endotoxin. […] The cell suspension is aliquoted in 24 well plates, 1 ml per well. Compounds to be tested are dissolved in neat dimethyl sulfoxide (DMSO) and added to culture with the final DMSO concentration at 0.1%. Compounds are added to cells in triplicate wells. TNFα release is stimulated by addition of LPS to the cells at a final concentration of 200 ng/ml. Appropriate control cultures are set up in triplicates also. The plates are incubated for 18-20 hrs at 37° C., 5% CO2, then centrifuged at 1000×g for 5 min. A specific ELISA for human TNFα (SmithKline Beecham) is used to measure TNF levels in the cell-free culture supernatants.

CD23 proteinase = biological target: T1, CD23 proteinase (Homo sapiens, UniProt O14672); experiment: RPMI 8866 cell membrane CD23 cleavage activity assay (CD23 proteinase inhibition); type: biochemical; settings: RPMI 8866 cell membranes
T1 construct: Plasma membranes from RPMI 8866 cells, a human Epstein-Barr virus transformed B-cell line; endogenous in cells; host or cells: RPMI 8866 (human EBV-transformed B-cell line), enriched plasma membranes
T1 sequence (O14672 214-748): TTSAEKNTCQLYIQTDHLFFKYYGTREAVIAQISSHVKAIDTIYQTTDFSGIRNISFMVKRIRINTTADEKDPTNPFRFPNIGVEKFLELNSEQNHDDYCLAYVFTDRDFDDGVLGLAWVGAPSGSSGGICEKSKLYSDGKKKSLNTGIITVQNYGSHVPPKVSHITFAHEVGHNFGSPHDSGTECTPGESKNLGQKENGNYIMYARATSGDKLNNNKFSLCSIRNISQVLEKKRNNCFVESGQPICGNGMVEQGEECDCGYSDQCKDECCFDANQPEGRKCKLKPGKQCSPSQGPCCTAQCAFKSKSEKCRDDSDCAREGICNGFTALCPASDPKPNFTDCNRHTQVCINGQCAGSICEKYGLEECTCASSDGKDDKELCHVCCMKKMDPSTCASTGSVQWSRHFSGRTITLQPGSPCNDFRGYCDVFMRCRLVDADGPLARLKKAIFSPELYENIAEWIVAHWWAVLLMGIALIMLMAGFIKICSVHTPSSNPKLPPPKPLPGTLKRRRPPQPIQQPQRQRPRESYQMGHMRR
Protocol: Procedure 1: The ability of test compounds to inhibit the release of soluble CD23 was investigated by use of the following procedure.
Cells resuspended in homogenization buffer (20 mM HEPES pH 7.4, 150 mM NaCl, 1.5 mM MgCl2, 1 mM DTI) are broken by N2 cavitation in a Parr bomb and the plasma membrane fraction mixed with other membranes is recovered by centrifugation at 10,000×g. The light pellet is resuspended in 0.2 M potassium phosphate, pH 7.2 using 2 ml per 1-3 g wet cells and the nuclear pellet is discarded. […] The phases are separated by brief centrifugation at 1000×g and the PEG (upper) phase is collected, diluted 3-5 fold with 20 mM potassium phosphate buffer pH 7.4, and centrifuged at 100,000×g to recover membranes in that phase. The pellet is resuspended in phosphate-buffered saline and consists of 3-4 fold enriched plasma membranes as well as some other cell membranes (e.g. lysosomes, Golgi). The membranes are aliquoted and stored at -80° C.
The amount of soluble CD23 made by 0.5 ug membrane protein in a total volume of 50 ul phosphate-buffered saline is measured by EIA and compared to the amount made in the presence of various concentrations of inhibitors. Inhibitors are prepared in solutions of water or dimethylsulfoxide (DMSO) and the final DMSO concentration is not more than 2%.

[1] = biological target: T2, human recombinant collagenase (Homo sapiens, UniProt P03956); experiment: Collagenase Inhibition Assay; type: biochemical
T2 construct: made in house; host or cells: E. coli
T2 sequence (P03956 100-469): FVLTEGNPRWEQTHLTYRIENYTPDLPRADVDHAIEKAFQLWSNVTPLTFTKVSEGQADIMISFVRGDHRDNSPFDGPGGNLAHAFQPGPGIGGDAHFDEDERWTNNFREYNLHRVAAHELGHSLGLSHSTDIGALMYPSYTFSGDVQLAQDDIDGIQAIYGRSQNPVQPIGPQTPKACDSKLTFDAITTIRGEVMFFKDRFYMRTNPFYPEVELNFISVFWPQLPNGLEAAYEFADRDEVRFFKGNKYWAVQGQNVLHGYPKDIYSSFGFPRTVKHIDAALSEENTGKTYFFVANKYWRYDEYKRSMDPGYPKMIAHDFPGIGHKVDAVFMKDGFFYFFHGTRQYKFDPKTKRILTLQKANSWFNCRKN
Description: Collagenase Inhibition Assay:
The collagen was acetylated ^3 H type 1 bovine collagen prepared by the method of Cawston and Murphy (methods in Enzymology 80, 711,1981) The samples were centrifuged to sediment undigested collagen and an aliquot of the radioactive supernatant removed for assay on a scintillation counter as a measure of hydrolysis.

`CNC(=O)[C@H](Cc1ccccc1)NC(=O)[C@H](CC(C)C)[C@H](CSc1cccs1)C(=O)NO` [Comparative Example, reference compound] was tested, and the inhibition at 1 µM (TNFα; Homo sapiens) was 76.4 ± 0.9%.
In the case of `CNC(=O)[C@@H](NC(=O)[C@H](Cc1ccc2ccccc2c1)[C@H](O)C(=O)NO)C(C)(C)C` [Example 1, N'-[3S-Hydroxy-4-(N-hydroxyamino)-2R-(2-naphthylmethyl)succinyl]-S-tert-leucine-N-methylamide], the inhibition at 1 µM (CD23 proteinase; at 1 uM) is reported as 88% and the IC50 [1] is reported as > 10 µM.
`CNC(=O)[C@H](Cc1ccccc1)NC(=O)[C@H](Cc1ccc2ccccc2c1)[C@H](O)C(=O)NO` [Example 2, N'-[3S-Hydroxy-4-(N-hydroxyamino)-2R-(2-naphthylmethyl)succinyl]-S-phenylalanine-N-methylamide] showed an inhibition at 2 µM (CD23 proteinase; at 2 uM) of 90%, an IC50 ([1]; 37° C., 18 h, acetylated 3H type 1 bovine collagen, read-out: Collagenase inhibition IC50) of 8.6 µM and an inhibition at 1 µM (TNFα; at 1 uM, human monocytes, LPS 200 ng/ml, 18-20 hrs) of 45%.
